Legend:
MCF-7 cells = assay: Apoptosis detection, Annexin V-FITC flow cytometry; format: cell-based, human
Protocol: Cell cycle analysis and apoptosis detection were carried out by flow cytometry. MCF-7 cells were seeded at 1–5 × 10^4 and incubated at 37 °C, 5% CO2 overnight. After treatment with the tested compound 10, for 24 h, cell pellets were collected and centrifuged (300× g, 5 min). For cell cycle analysis, cell pellets were fixed with 70% ethanol on ice for 15 min and collected again [54]. The collected pellets were incubated with propidium iodide (PI) staining solution at room temperature for 1 h. Apoptosis detection was performed by Annexin V-FITC apoptosis detection kit (BioVision, Inc, Milpitas, CA, USA) following the manufacturer’s protocol. The samples were analyzed using FACS Calibur flow cytometer (BD Biosciences, San Jose, CA).
Figure 5 Cell cycle analysis and the effect of the target 10 on the percentage of V-FITC-positive annexin staining in MCF-7 cells in comparison with the control. TEXT PRINTED IN THE PICTURE: (C) cpd10: MCF7: 6.07%; MCF7: 18.11%; MCF7: 25.44% | (D) cpd10: MCF7: %DIP G1 41.96%; MCF7: %DIP G2/M 6.61%; MCF7: %DIP S 51.43%

[1] = system: human breast adenocarcinoma (MDA-MB-231 cell lines); assay: MTT cytotoxicity assay, MDA-MB-231; format: cell-based; settings: MDA-MB-231, 48 h
Protocol: The synthesized compounds were studied for their cytotoxic activity against several human cancer cell lines, namely human osteosarcoma (HOS cell lines), human breast adenocarcinoma (MDA-MB-231 cell lines), human breast cancer (MCF-7 cell lines), human colorectal adenocarcinoma (Caco-2 cell lines) and human colon cell line (HCT-116 cell lines) using MTT assay at 100 µM, and the results were outlined as shown in Table 1.
Human osteosarcoma (HOS cell line), human breast adenocarcinoma (MDA-MB-231cell lines), human breast cancer (MCF-7 cell lines), human colorectal adenocarcinoma (Caco2 cell lines), human colon cell line (HCT-116 cell lines), normal human cell lines (BJ-1), and “a telomerase immortalized normal foreskin fibroblast cell line” were obtained from Karolinska Center, Department of Oncology and Pathology, Karolinska Institute and Hospital, Stockholm, Sweden.
Following culturing for 10 days, the cells were seeded at concentration of 10 × 10^3 cells per well in case of MCF-7 & MDA, 20 × 10^3 cells/well in a fresh complete growth medium in case of HCT-116, Caco2, & HOS and 40 × 10^3 cells/well in case of BJ-1 at 37 °C for 24 h in a water jacketed carbon dioxide incubator. After 48 h’ incubation, the medium was aspirated, and then 40 μl MTT salt (2.5 mg/mL) were added for a further 4 h; 200 μl 10% sodium dodecyl sulphate (SDS) in deionized water were added to each well and incubated overnight at 37 °C. The absorbance was measured at 595 nm with reference 690 nm. Doxorubicin was used as positive control, and 0.5% DMSO was used as negative control. IC50 values were calculated, using a probit analysis, and by utilizing the SPSS computer program (SPSS for Windows, statistical analysis software package/version 9/1989 SPSS Inc., Chicago, IL, USA).

caspase-7 in MCF-7 cells = assay: Caspase-7 level in MCF-7 cells (ELISA); format: cell-based, human; settings: MCF-7, 24 h, versus 5-fluorouracil or untreated cells
Protocol: Referring to the cytotoxicity results, the 1,2,4-triazole-thioglycoside derivative 10 has a mitochondria-apoptotic effect on breast cancer cells through reduction of MTT by a mitochondrial enzyme. […] Along with that, such derivative elevated the release of cytochrome c into the cytosol in the treated MCF-7, in comparison with untreated one from 0.176 to 0.766 ng/ml due to disturbing mitochondrial outer membrane permeability (MOMP). In addition, the target 10 achieved better results than those afforded by from the standard 5-fluorouracil. Moreover, the level of caspase-7 was elevated in treated cells with the target 10 rather than that with 5-fluorouracil or the untreated cells as shown in Figure 4.
The micro-ELISA plate was provided in this kit pre-coated with a CASP-7-specific antibody. A biotinylated CASP-7 antibody and Avidin–horseradish peroxidase (HRP) conjugate were added. Get rid of the excess components. The substrate solution was added. Wells that contain CASP-7, biotinylated detection antibody, and Avidin-HRP conjugate will appear blue in color. The color turns yellow following the addition of sulfuric acid solution. The optical density (OD) was measured at a wavelength of 450 nm ±2 nm. […]

VEGFR-2 = VEGFR-2 (Homo sapiens, UniProt P35968); assay: VEGFR-2 inhibitory assay (ELISA); format: biochemical; settings: mean of three values; read-out: IC50 (Mean ± SEM), VEGFR-2
VEGFR-2, sequence (P35968 20-1356): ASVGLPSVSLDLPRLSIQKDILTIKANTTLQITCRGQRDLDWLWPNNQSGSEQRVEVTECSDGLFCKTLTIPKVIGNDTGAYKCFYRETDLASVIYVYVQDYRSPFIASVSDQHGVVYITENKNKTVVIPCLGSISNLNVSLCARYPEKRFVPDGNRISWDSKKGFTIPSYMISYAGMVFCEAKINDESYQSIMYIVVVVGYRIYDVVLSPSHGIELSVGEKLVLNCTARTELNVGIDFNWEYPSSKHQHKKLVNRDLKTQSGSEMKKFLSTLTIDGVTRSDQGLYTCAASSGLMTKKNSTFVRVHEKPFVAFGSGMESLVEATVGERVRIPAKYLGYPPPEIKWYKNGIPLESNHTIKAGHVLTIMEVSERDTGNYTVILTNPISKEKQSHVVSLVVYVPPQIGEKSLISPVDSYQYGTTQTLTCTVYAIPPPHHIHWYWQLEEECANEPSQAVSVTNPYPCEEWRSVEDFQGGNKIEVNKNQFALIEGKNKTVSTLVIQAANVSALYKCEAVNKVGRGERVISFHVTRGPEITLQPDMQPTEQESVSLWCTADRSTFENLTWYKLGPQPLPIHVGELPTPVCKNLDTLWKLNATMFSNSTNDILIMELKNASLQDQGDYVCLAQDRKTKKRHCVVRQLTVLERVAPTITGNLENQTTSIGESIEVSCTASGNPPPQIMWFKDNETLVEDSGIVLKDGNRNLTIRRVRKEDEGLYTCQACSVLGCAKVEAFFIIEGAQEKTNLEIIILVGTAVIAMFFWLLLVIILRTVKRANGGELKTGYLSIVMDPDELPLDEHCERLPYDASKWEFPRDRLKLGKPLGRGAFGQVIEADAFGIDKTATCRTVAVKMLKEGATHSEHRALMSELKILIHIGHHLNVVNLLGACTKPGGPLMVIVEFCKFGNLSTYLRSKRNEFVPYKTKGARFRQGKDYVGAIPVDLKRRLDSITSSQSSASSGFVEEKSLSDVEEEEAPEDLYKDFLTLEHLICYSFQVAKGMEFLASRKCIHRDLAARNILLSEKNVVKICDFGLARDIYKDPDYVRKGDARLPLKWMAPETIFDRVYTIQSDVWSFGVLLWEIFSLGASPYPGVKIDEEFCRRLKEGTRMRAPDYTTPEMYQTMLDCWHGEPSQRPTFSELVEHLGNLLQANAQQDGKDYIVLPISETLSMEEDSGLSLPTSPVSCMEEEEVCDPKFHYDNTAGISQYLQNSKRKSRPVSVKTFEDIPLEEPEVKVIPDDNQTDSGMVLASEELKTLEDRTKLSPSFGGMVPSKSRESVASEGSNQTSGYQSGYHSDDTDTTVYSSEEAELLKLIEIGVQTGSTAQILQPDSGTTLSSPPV
Protocol: The cells were harvested, and the homogenates were prepared in saline using a tight pestle homogenizer until complete cell disruption. The kit uses a double-antibody sandwich enzyme-linked immunosorbent assay (ELISA) to determine the level of human VEGFR-2 in samples. A monoclonal antibody for VEGFR-2 was pre-coated onto 96-well plates. The test samples are added to the wells, and a biotinylated detection polyclonal antibody from goat specific for VEGFR-2 was added subsequently followed by washing with PBS buffer. Avidin-Biotin-Peroxidase complex was added, and the unbound conjugates were washed away with PBS buffer. HRP substrate TMB was used to visualize HRP enzymatic reaction. TMB was catalyzed by HRP to produce a blue color product that changed into yellow after adding acidic stop solution. The density of yellow color is proportional to the human VEGFR-2 amount of the sample captured in the plate. The chroma of color and the concentration of the human VEGFR-2 of the samples were positively correlated, and the optical density was determined at 450 nm. The level of human VEGFR-2 in samples was calculated (pg/ml) as duplicate determinations from the standard curve. Percent inhibition was calculated in comparison to control untreated cells.

CCn1c(COc2ccc3c(-c4ccccc4)cc(=O)oc3c2)nnc1SC1OCC(O)C(O)C1O [Compound 10, 4-Phenyl-7-((4-ethyl-5-(1-(β-D-xylopyranosyl)thio)-4H-1,2,4-triazol-3-yl)meth-oxy)-2H-chromen-2-one]
Secondary late apoptosis (MCF-7 cells; MCF-7, 19.6 µM (IC50), 24 h, untreated 0.18): 18.11% | Early apoptosis (MCF-7 cells; MCF-7, 19.6 µM (IC50), 24 h, untreated 0.47): 25.44% | Annexin V-FITC staining, third percentage not named in the picture text (MCF-7 cells; MCF-7, Figure 5C): 6.07% | cytotoxicity at 100 µM [1]: 20.6 ± 0.5% | Level of caspase-7 (in words) (caspase-7 in MCF-7 cells): elevated | IC50 (VEGFR-2): 790 ± 140 nM

From PMC9458111, “New 1,2,3-Triazole-Coumarin-Glycoside Hybrids and Their 1,2,4-Triazolyl Thioglycoside Analogs Targeting Mitochondria Apoptotic Pathway: Synthesis, Anticancer Activity and Docking Simulation” (Molecules, 2022)
